One assay concerns KB. The assay is described as follows: Concentration that inhibits cell proliferation (KB cell line) after 72 h of incubation. In kind it is functional, cell-based. To be noted: Homo sapiens.
The nature of assay [1]: Concentration that inhibits the rate of cold-induced microtubule disassembly. In kind it is functional.
Assay [2] in a line: Concentration that inhibits the rate of cold-induced microtubule disassembly; Inactive. It counts as functional.

As to `CC(=O)O[C@@]12COC1C[C@H](O)C1C(=O)[C@H](O)C3=C(C)[C@@H](OC(=O)[C@H](O)[C@@H](NC(=O)N[C@H](C(=O)OCc4ccccc4)C(C)C)c4ccccc4)C[C@@](O)([C@@H](OC(=O)c4ccccc4)C12)C3(C)C` (some centres undefined), the concentration for half-maximal inhibition (IC50) (as a rule, the concentration that inhibits the measured activity by half) was found to be 4 nM in the assay with KB and 800 nM in assay [1].
For the compound `CC(=O)O[C@@]12COC1C[C@H](O)C1C(=O)[C@H](O)C3=C(C)[C@@H](OC(=O)[C@H](O)[C@@H](NC(=O)OC(C)(C)C)c4ccccc4)C[C@@](O)([C@@H](OC(=O)c4ccccc4)C12)C3(C)C` (some centres undefined), the IC50 with KB is 1 nM; in assay [1] it was 500 nM.
On the same counts, the results for `CC(=O)O[C@@]12COC1C[C@H](O)C1C(=O)[C@H](O)C3=C(C)[C@@H](OC(=O)[C@H](O)[C@@H](NC(=O)NCC(=O)N[C@@H](CO)C(=O)N[C@@H](Cc4ccc(O)cc4)C(=O)O)c4ccccc4)C[C@@](O)([C@@H](OC(=O)c4ccccc4)C12)C3(C)C` (some centres undefined) are 1050 nM and 1000 nM.
On the same counts, the results for `CC(=O)O[C@@]12COC1C[C@H](O)C1C(=O)[C@H](O)C3=C(C)[C@@H](OC(=O)[C@H](O)[C@@H](NC(=O)N[C@H](C(=O)O)C(C)C)c4ccccc4)C[C@@](O)([C@@H](OC(=O)c4ccccc4)C12)C3(C)C` (some centres undefined) are 670 nM and 800 nM.
On the same counts, the results for `CC(=O)O[C@@]12COC1C[C@H](O)C1C(=O)[C@H](O)C3=C(C)[C@@H](OC(=O)[C@H](O)[C@@H](NC(=O)N[C@H](C(=O)N4CCC[C@H]4C(=O)NCC(=O)NCC(=O)O)C(C)C)c4ccccc4)C[C@@](O)([C@@H](OC(=O)c4ccccc4)C12)C3(C)C` (some centres undefined) are > 10000 nM and 500 nM.
`CC(=O)O[C@@]12COC1C[C@H](O)C1C(=O)[C@H](O)C3=C(C)[C@@H](OC(=O)[C@H](O)[C@@H](NC(=O)N[C@H](C(=O)N4CCC[C@H]4C(=O)OCc4ccccc4)C(C)C)c4ccccc4)C[C@@](O)([C@@H](OC(=O)c4ccccc4)C12)C3(C)C` (some centres undefined): the concentration for half-maximal inhibition (IC50) was 50 nM in the assay on KB and 500 nM in assay [1].
As to `CC(=O)O[C@@]12COC1C[C@H](O)C1C(=O)[C@H](O)C3=C(C)[C@@H](OC(=O)[C@H](O)[C@@H](NC(=O)NCC(=O)N[C@@H](COCc4ccccc4)C(=O)N[C@@H](Cc4ccc(OCc5ccccc5)cc4)C(=O)OCc4ccccc4)c4ccccc4)C[C@@](O)([C@@H](OC(=O)c4ccccc4)C12)C3(C)C` (some centres undefined), the figures for the IC50 (in the assay with KB; in assay [2]) were 90 nM and “Not Active”, respectively.
With `CC(=O)O[C@@]12COC1C[C@H](O)C1C(=O)[C@H](O)C3=C(C)[C@@H](OC(=O)[C@H](O)[C@@H](NC(=O)N[C@H](C(=O)N4CCC[C@H]4C(=O)NCC(=O)O)C(C)C)c4ccccc4)C[C@@](O)([C@@H](OC(=O)c4ccccc4)C12)C3(C)C` (some centres undefined), the values for the IC50 (in the assay on KB; in assay [1]) were > 10000 nM and 600 nM, respectively.
For `CC(=O)O[C@@]12COC1C[C@H](O)C1C(=O)[C@H](O)C3=C(C)[C@@H](OC(=O)[C@H](O)[C@@H](NC(=O)N[C@H](C(=O)N4CCC[C@H]4C(=O)NCC(=O)NCC(=O)OCc4ccccc4)C(C)C)c4ccccc4)C[C@@](O)([C@@H](OC(=O)c4ccccc4)C12)C3(C)C` (some centres undefined), the results for the IC50 (with KB; in assay [1]) were 4000 nM and 300 nM, respectively.
On the same counts, the results for `CC(=O)O[C@@]12COC1C[C@H](O)C1C(=O)[C@H](O)C3=C(C)[C@@H](OC(=O)[C@H](O)[C@@H](NC(=O)N[C@H](C(=O)N4CCC[C@H]4C(=O)NCC(=O)OCc4ccccc4)C(C)C)c4ccccc4)C[C@@](O)([C@@H](OC(=O)c4ccccc4)C12)C3(C)C` (some centres undefined) are 100 nM and 400 nM.
On the same counts, the results for `COC(=O)[C@H](CCSC)NC(=O)[C@H](Cc1ccccc1)NC(=O)[C@@H](NC(=O)N[C@@H](c1ccccc1)[C@@H](O)C(=O)O[C@H]1C[C@@]2(O)[C@@H](OC(=O)c3ccccc3)C3C(C(=O)[C@H](O)C(=C1C)C2(C)C)[C@@H](O)CC1OC[C@]13OC(C)=O)C(C)C` (some centres undefined) are 1100 nM and 2600 nM.
As for `CC(=O)O[C@@]12COC1C[C@H](O)C1C(=O)[C@H](O)C3=C(C)[C@@H](OC(=O)[C@H](O)[C@@H](NC(=O)N[C@H](C(=O)N4CCC[C@H]4C(=O)O)C(C)C)c4ccccc4)C[C@@](O)([C@@H](OC(=O)c4ccccc4)C12)C3(C)C` (some centres undefined), the IC50 with KB came out at 4500 nM; in assay [1] it was 1700 nM.

(Values after ChEMBL document CHEMBL1140396, “Novel C2-C3' N-peptide linked macrocyclic taxoids. Part 1: Synthesis and biological activities of docetaxel analogues with a peptide side chain at C3'” (Bioorg Med Chem Lett, 2005).)
